The results in this text go back to PubChem BioAssay (NCI).

Each structure is given as a SMILES string.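 Where inhibition never reached the appropriate level, the endpoint shown equals the highest concentration tested. Otherwise, values were interpolated linearly from a five-concentration, 48-hour dose response in 96-well plates. TGI denotes the concentration required for complete inhibition of growth.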 Bounds are passed on as bounds.

Test systems include HOP-62 NSCLC; UACC-62 melanoma; CCRF-CEM leukemia; MCF7 breast; NCI-H226 lung.
What all share (assay): NCI tumour cell line growth inhibition, 48 h

In the case of `O[C@@H]1C[C@@H]2N[C@@](O)(C[C@@H]2O)[C@H]1O`, the TGI with HOP-62 NSCLC, in the experiment on UACC-62 melanoma, with CCRF-CEM leukemia, in the experiment on MCF7 breast and in the experiment on NCI-H226 lung was greater than 100 µM in each case.

With `COc1cc(COC(=O)N2CCC2C(=O)O)c([N+](=O)[O-])cc1OC` (stereo unspecified), the TGI with HOP-62 NSCLC, in the experiment with UACC-62 melanoma, in the experiment on CCRF-CEM leukemia, in the experiment with MCF7 breast and with NCI-H226 lung was greater than 100 µM in each case.

Turning to `CCOc1cc(NC(C)=O)ccc1C(=O)NN1C(=O)/C(=C/c2cc(OC)c(OC)c(OC)c2)N=C1c1ccccc1`, the TGI with UACC-62 melanoma, in the experiment with CCRF-CEM leukemia, in the experiment with MCF7 breast and in the experiment on NCI-H226 lung was greater than 100 µM each time.

Consider `CCC1C(c2cc(OC)c(OC)c(OC)c2)c2cc3c(cc2OC1N1CCOCC1)OCO3` (stereo unspecified), for which the TGI in the experiment with HOP-62 NSCLC was found to be 20.6 µM; in the experiment on UACC-62 melanoma, 24.7 µM; in the experiment on MCF7 breast, 15.5 µM; with NCI-H226 lung, 27.6 µM.

For `c1cc2c(c(-c3c4ccccc4nc4ccccc34)c1)CC1(CC2)OCCO1`, the TGI in the experiment with HOP-62 NSCLC, with MCF7 breast and with NCI-H226 lung was greater than 100 µM in each case.

`CC[C@@H](/C=C\CCC1(C[C@H](O)CCC=C(C)C)OCCO1)O[Si](C(C)C)(C(C)C)C(C)C`: the TGI is greater than 100 µM in the experiment with HOP-62 NSCLC; 64.5 µM in the experiment on UACC-62 melanoma; greater than 100 µM in the experiment with CCRF-CEM leukemia; 32 µM in the experiment on MCF7 breast; 35.9 µM in the experiment with NCI-H226 lung.

For `CCC(=O)O[C@H]1CC[C@H]2[C@@H]3CCC4=C/C(=N/NC(=O)c5cccc6c(=O)c7ccccc7[nH]c56)CC[C@]4(C)[C@H]3CC[C@]12C`, the TGI in the experiment with HOP-62 NSCLC, in the experiment on UACC-62 melanoma, in the experiment with CCRF-CEM leukemia, in the experiment on MCF7 breast and with NCI-H226 lung was greater than 25 µM each time.

As to `O=[N+]([O-])c1cccnc1NCC1(CO)CC(Cc2ccccc2)C1` (stereo unspecified), the TGI in the experiment on HOP-62 NSCLC, in the experiment with UACC-62 melanoma, with CCRF-CEM leukemia, with MCF7 breast and in the experiment with NCI-H226 lung was greater than 100 µM throughout.

In the case of `Cc1nnc2n1-c1ccccc1C(=S)N1CSCC21` (stereo unspecified), the TGI with HOP-62 NSCLC, in the experiment with UACC-62 melanoma, in the experiment with CCRF-CEM leukemia, in the experiment on MCF7 breast and in the experiment on NCI-H226 lung was greater than 100 µM each time.

For `Cn1c(-c2cccs2)cc(-c2cccs2)c1-c1ccsc1`, the TGI in the experiment on HOP-62 NSCLC, with UACC-62 melanoma, in the experiment on CCRF-CEM leukemia, with MCF7 breast and with NCI-H226 lung was greater than 100 µM each time.

For the compound `C=C1C(=O)OC2C1CC(O)/C(C)=C\CCC1(C)OC21` (stereo unspecified), the TGI was 49.3 µM with HOP-62 NSCLC, 61.1 µM with UACC-62 melanoma, greater than 100 µM in the experiment with CCRF-CEM leukemia and 86.1 µM with MCF7 breast.

On to `CNC(=S)N/N=C/c1cccc(C)n1`, for which the TGI is 46.7 µM in the experiment with HOP-62 NSCLC; 56.4 µM in the experiment with UACC-62 melanoma; greater than 73.6 µM in the experiment on CCRF-CEM leukemia; greater than 100 µM in the experiment with MCF7 breast; greater than 83.9 µM with NCI-H226 lung.

As to `CN(CCc1ccc(N)cc1)[C@H]1CCCC[C@H]1N1CCCC1`, the TGI in the experiment on HOP-62 NSCLC, with UACC-62 melanoma, in the experiment with MCF7 breast and in the experiment on NCI-H226 lung was greater than 100 µM in each case.

Turning to `CC[C@H]1OC([C@H](O)C/C=C\C#C[Si](C)(C)C)C/C=C\C[C@H]1O[Si](C)(C)C(C)(C)C` (stereo partly specified), the TGI with HOP-62 NSCLC, in the experiment with UACC-62 melanoma, in the experiment on CCRF-CEM leukemia, in the experiment with MCF7 breast and in the experiment on NCI-H226 lung was greater than 100 µM in each case.

On to `Nc1nc(Cl)cc(Nc2cc(Cl)cc(Cl)c2)n1`, for which the TGI with HOP-62 NSCLC was determined as 55.1 µM; with UACC-62 melanoma, 33.5 µM; in the experiment with CCRF-CEM leukemia, 51.7 µM; in the experiment on MCF7 breast, 41.6 µM; with NCI-H226 lung, 40.8 µM.

In the case of `CC(C)C1OC(=O)/C=C/C=C/C=C/C=C/C=C/CC(O)CC(O)CC(O)CC(O)CC(O)CC(O)CC(O)CC(O)/C=C/C1C` (stereo unspecified), the TGI in the experiment with HOP-62 NSCLC, in the experiment with CCRF-CEM leukemia, with MCF7 breast and in the experiment with NCI-H226 lung was greater than 100 µM throughout.

As to `COc1ccccc1N1CCN(Cn2c(=O)oc3cccnc32)CC1`, the TGI in the experiment with HOP-62 NSCLC, in the experiment with CCRF-CEM leukemia and with MCF7 breast was greater than 100 µM throughout.

As to `O=[N+]([O-])c1cn[n+]([O-])c2ccccc12`, the values for the TGI in the experiment with HOP-62 NSCLC, in the experiment with MCF7 breast and with NCI-H226 lung were 26.2 µM, 50.1 µM and 27.3 µM, respectively.

Regarding `CCOC(=O)C(NC(=O)Nc1ccc(Cl)c(Cl)c1)C(F)(F)F` (stereo unspecified), in the experiment with CCRF-CEM leukemia, the TGI is greater than 100 µM.

For the compound `N#Cc1ccc(OCc2nc3cc(C(F)(F)F)ccc3nc2-c2ccccc2)cc1`, the TGI in the experiment on HOP-62 NSCLC, in the experiment on UACC-62 melanoma, in the experiment with CCRF-CEM leukemia and with MCF7 breast was greater than 100 µM in each case.

As to `COC(=O)/C=c1/c2ccccc2n2nc3ccccc3c12`, the TGI in the experiment on HOP-62 NSCLC, with UACC-62 melanoma, in the experiment on CCRF-CEM leukemia and in the experiment on MCF7 breast was greater than 100 µM in each case.

For the compound `S=c1[nH]c(=S)c2cc(Sc3ccc4[nH]c(=S)[nH]c(=S)c4c3)ccc2[nH]1`, the TGI in the experiment with UACC-62 melanoma is 36.3 µM; in the experiment on CCRF-CEM leukemia it was 80.9 µM; in the experiment on MCF7 breast it was greater than 100 µM; in the experiment with NCI-H226 lung, 52.5 µM.

For `O=S1C2=C(Cc3ccccc3)C(Cc3ccccc3)=C1CCc1cccc(c1)CC2`, the TGI in the experiment with UACC-62 melanoma is 24.7 µM; in the experiment with CCRF-CEM leukemia, greater than 100 µM; in the experiment with MCF7 breast, 25.7 µM; in the experiment with NCI-H226 lung, 47.8 µM.

As to `COc1ccc2c(c1)c1c(n2CCN2CCCCC2)-c2ccccc2CC1`, the TGI was 34.7 µM in the experiment on HOP-62 NSCLC, 47.4 µM in the experiment on CCRF-CEM leukemia, 30.2 µM in the experiment on MCF7 breast and 19.3 µM with NCI-H226 lung.

Take `O=C(CSCC(=O)N/N=C\c1ccc(-c2ccccc2)cc1)N/N=C\c1ccc(-c2ccccc2)cc1`: the TGI was 51.9 µM with HOP-62 NSCLC, 62.4 µM in the experiment with UACC-62 melanoma, greater than 100 µM in the experiment with MCF7 breast and 84.5 µM in the experiment on NCI-H226 lung.

`CC(C)CCn1c(=O)c2c(=O)[nH][nH]c2c2ccccc21`: the TGI in the experiment on HOP-62 NSCLC, with CCRF-CEM leukemia, with MCF7 breast and in the experiment with NCI-H226 lung was greater than 100 µM in each case.

Regarding `COc1ccc(CC2NC(=O)/C=C/CC(C(C)C3OC3c3ccccc3)OC(=O)C(CC(C)C)OC(=O)C(C)CNC2=O)cc1Cl` (stereo unspecified), the TGI in the experiment on HOP-62 NSCLC was greater than 0.1 µM; in the experiment with MCF7 breast, greater than 0.1 µM; in the experiment with NCI-H226 lung, 0.000127 µM.
